# Experiments:
# HEK-293 cells [1] = experiment: Caspase-3 activity assay, protection from 3-nitropropionate; format: cell-based, Human; conditions: 8 mM 3-NP, 12 hours, over control
# HEK-293 cells [2] = experiment: Caspase-3 activity assay, protection from staurosporine; format: cell-based, Human; conditions: 1 μM staurosporine, 12 hours, vs citrate buffer control
Compound,increase of caspase-3 activity by toxin (HEK-293 cells [1]),increase of caspase-3 activity by toxin (HEK-293 cells [2])
"O=C(O)CC[N+](=O)[O-] [3-NP, 3-nitropropionate]",approximately 100%,–
CN[C@@H]1C[C@H]2O[C@@](C)([C@@H]1OC)n1c3ccccc3c3c4c(c5c6ccccc6n2c5c31)C(=O)NC4 [staurosporine],–,approximately 80%
